# Patent US12364669B2, “Device and method for transdermal delivery of cannabidiol” (Remy Biosciences, Inc., priority 2020, dated 2025)
# Test: Diffusion of CBD from transdermal devices through a human cadaver epidermis, Franz Diffusion Cell method
# Type: in vitro ADME
# Conditions: Example 2, FIG. 4; reservoir device, 5 percent CBD in ethanol/water 70/30; with hydrophilic porous membrane 24 versus membrane omitted
# Experimental: The effects of using a hydrophobic, porous membrane versus a hydrophilic, porous membrane (such as membrane 24) in reservoir transdermal device 20 are studied in this example. […] The backing 22 is an occlusive backing film (PE/PET from 3M). Hydroxy ethyl cellulose is added to the solution to yield a thixotropic preparation 27. A volume of 300 microliters of the preparation is placed in the reservoir 26.
# The skin adhesive 30 is a BIO PSA 7-4301 adhesive coated to a thickness of 15 g/m^2 on side 36 of membrane 24. An overlay adhesive patch is placed over the reservoir which forms an island in the middle. The overlay assures adhesion of the reservoir to the skin. The device 20 is contacted with a human cadaver epidermis, and diffusion through the epidermis is measured using the Franz Diffusion Cell method.
# In a first run, membrane 24 is a Lydall® Evopor™ 5E02A, hydrophilic, microporous membrane (of 0.2 micrometers pore size). […]
# The device 20 is contacted with a human cadaver epidermis, and diffusion through the epidermis is measured using the Franz Diffusion Cell method. […]
# This example is conducted using three reservoir transdermal devices such as those of Example 1, with each having the hydrophilic, porous membrane described therein. […] Diffusion through a human cadaver epidermis is measured using the Franz Diffusion Method. […]
smiles,measurement,value
"C=C(C)[C@@H]1CCC(C)=C[C@H]1c1c(O)cc(CCCCC)cc1O [CBD, Cannabidiol]",permeability of CBD through the skin (cumulative flux versus time),the same regardless of whether the membrane 24 is provided
